The assay relates to PMA-differentiated THP-1 cells. Kind of assay: IL-1β production in PMA-differentiated THP-1 cells stimulated with gramicidin (hTHP-1 assay containing 2% fetal bovine serum; Procedures 1 and 2). The settings on record: 2% fetal bovine serum. The class given is cell-based, human. The method, boiled down: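 Compound titrations in 0.37% final DMSO were added to THP-1 cells that had been plated after 16-18 h PMA treatment, 50,000 per well in 2% FBS. One hour later the cells received gramicidin (5 μM, 2 h) and were centrifuged. HTRF detected IL-1β in the collected supernatants.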

Where [1] appears, read: Homo sapiens, THP-1, Table B2, class symbols, read-out: hTHP-1 IC50.
The mark [2] stands for this setting: Homo sapiens, THP-1, Table B4, class symbols, read-out: hTHP-1 IC50.
Setting [3] is: Table B2, class symbols, read-out: hTHP-1 IC50.
The mark [4] stands for this setting: Table B1, class symbols, read-out: Average IC50 of compounds in hTHP-1 assay: hTHP-1 IC50.
The mark [5] stands for this setting: Homo sapiens, THP-1, Table B1, class symbols, read-out: Average IC50 of compounds in hTHP-1 assay: hTHP-1 IC50.
The mark [6] stands for this setting: Homo sapiens, THP-1, Table B3, hTHP-1 assay, class symbols, read-out: IC50.

The structures appear in SMILES notation. Where two headings read alike, the source gives them in different places.

This note sets out measurements from patent US20230031406A1, “COMPOUNDS AND COMPOSITIONS FOR TREATING CONDITIONS ASSOCIATED WITH NLRP ACTIVITY” (Novartis AG, priority 2018, published 2023).

The term IC50 denotes the concentration needed to halve the response being measured. With `CC(C)(O)c1cc(C#N)cc(S(N)(=O)=NC(=O)Nc2c3c(nc4c2CCC4(C)C)CCC3)c1` (single isomer, unassigned) [Compound 674b, (R) or (S)-3-Cyano-N′-((3,3-dimethyl-1,2,3,5,6,7-hexahydrodicyclopenta [b,e]pyridin-8-yl)carbamoyl)-5-(2-hydroxypropan-2-yl)benzene-sulfonimidamide], the IC50 under setting [1] was 1 to 5 µM.

Regarding `CCn1cc(F)c(S(N)(=O)=NC(=O)Nc2c3c(nc(C(F)(F)F)c2-c2ccc(F)cc2)CCC3)n1` (stereo not shown) [Example 733, 1-Ethyl-4-fluoro-N′-((3-(4-fluorophenyl)-2-(trifluoromethyl)-6,7-dihydro-5H-cyclopenta[b]pyridin-4-yl)carbamoyl)-1H-pyrazole-3-sulfonimidamide], under setting [2], the IC50 was in the range of 0.04 to 0.2 µM.

`Cc1c(C(F)(F)F)nc2c(c1NC(=O)N=S(N)(=O)c1cc(C(C)(C)O)cs1)CCC2` (single isomer, unassigned) [Compound 624b, (R) or (S)-4-(2-Hydroxypropan-2-yl)-N′-((3-methyl-2-(trifluoromethyl)-6,7-dihydro-5H-cyclopenta[b]pyridin-4-yl)carbamoyl) thiophene-2-sulfonimidamide]: under setting [3], the IC50 lay within 0.04 to 0.2 µM.

Take `CC1CCc2c1nc1c(c2NC(=O)N=S(N)(=O)c2ncc(C(C)(C)O)s2)CCC1` (single isomer, unassigned) [Compound 140ab, (R,S) or (R,R)-5-(2-hydroxypropan-2-yl)-N′-((3-methyl-1,2,3,5,6,7-hexa-hydrodicyclo-penta[b,e]pyridin-8-yl)carbamoyl)thiazole-2-sulfonimidamide]: the half-maximal inhibitory concentration (IC50) under setting [4] lay within 1 to 5 µM.

Turning to `CC(C)c1csc(S(N)(=O)=NC(=O)Nc2c3c(nc4c2CCC4)CCC3)c1` (stereo not shown) [Compound 173, N′-((1,2,3,5,6,7-hexahydrodicyclopenta[b,e]pyridin-8-yl)carbamoyl)-4-isopropylthiophene-2-sulfonimidamide], the IC50 under setting [5] is 0.2 to 1 µM.

For the compound `CCn1cc(F)c(S(N)(=O)=NC(=O)Nc2c3c(nc(C(F)(F)F)c2-c2ccccc2)CCC3)n1` (single isomer, unassigned) [Example 768, (S) or (R)-1-ethyl-4-fluoro-N′-((3-phenyl-2-(trifluoromethyl)-6,7-dihydro-5H-cyclopenta[b]pyridin-4-yl)carbamoyl)-1H-pyrazole-3-sulfonimidamide], the IC50 (Table B4, class symbols, read-out: hTHP-1 IC50) was 0.2 to 1 µM.

Take `Cc1c(C(F)(F)F)nc2c(c1NC(=O)N=S(N)(=O)c1cnc(C(C)(C)O)s1)CCC2C` (single isomer, unassigned) [Example 704, (R/S, R) or (R/S, S)-N′-((3,7-dimethyl-2-(trifluoromethyl)-6,7-dihydro-5H-cyclopenta[b]pyridin-4-yl)carbamoyl)-2-(2-hydroxypropan-2-yl)thiazole-5-sulfonimidamide]: the IC50 (Table B3, hTHP-1 assay, class symbols, read-out: IC50) was in the range of 0.2 to 1 µM.

Consider `CC(C)c1cc(NC(=O)N=S(N)(=O)c2cc(C(C)(C)O)cs2)c2c(n1)CCC2` (single isomer, unassigned) [Compound 182a, (S) or (R)-4-(2-Hydroxypropan-2-yl)-N′-((2-isopropyl-6,7-dihydro-5H-cyclopenta[b]pyridin-4-yl)carbamoyl) thiophene-2-sulfonimidamide], for which, under “Homo sapiens, THP-1, Table B2, numeric bounds, read-out: hTHP-1 IC50”, the IC50 was greater than 30 µM.

`CCn1ncc(F)c1S(N)(=O)=NC(=O)Nc1c(C)c(C(F)(F)F)nc2c1CCC2` (stereo not shown) [compound 754, 1-Ethyl-4-fluoro-N′-((3-methyl-2-(trifluoromethyl)-6,7-dihydro-5H-cyclopenta[b]pyridin-4-yl)carbamoyl)-1H-pyrazole-5-sulfonimidamide]: under setting [2], the half-inhibitory concentration (IC50) fell in the range of 1 to 5 µM.

As for `CN(C)Cc1ccc(S(N)(=O)=NC(=O)Nc2c3c(nc4c2CCC4(C)C)CCC3)cc1` (single isomer, unassigned) [Compound 125b, (R) or (S)-N′-((3,3-dimethyl-1,2,3,5,6,7-hexahydro-dicyclopenta[b,e]pyridin-8-yl)carbamoyl)-4-((dimethylamino)meth-yl)benzene-sulfonimidamide], the half-maximal inhibitory concentration (IC50) under setting [5] is 1 to 5 µM.

`CCn1ccc(S(N)(=O)=NC(=O)Nc2c3c(nc4c2CCC4(C)C)CCC3)n1` (stereo not shown) [Compound 603, N′-((3,3-dimethyl-1,2,3,5,6,7-hexahydrodicyclopenta[b,e]pyridin-8-yl)carbamoyl)-1-ethyl-1H-pyrazole-3-sulfonimidamide]: under setting [1], the concentration for half-maximal inhibition (IC50) was in the range of 0.04 to 0.2 µM.

For `CC(C)(O)c1nc(CO)c(S(N)(=O)=NC(=O)Nc2c3c(nc4c2CCC4(C)C)CCC3)s1` (stereo not shown) [Compound 121, N′-((3,3-dimethyl-1,2,3,5,6,7-hexahydrodicyclopenta[b,e]pyridin-8-yl)carbamoyl)-4-(hydroxymethyl)-2-(2-hydroxypropan-2-yl)thiazole-5-sulfonimidamide], the half-maximal inhibitory concentration (IC50) under setting [5] was 0.2 to 1 µM.

As for `CC1CCc2c1nc1c(c2NC(=O)N=S(N)(=O)c2cc(C(C)(C)O)cs2)CCC1` (single isomer, unassigned) [Compound 141aa, (R,R) or (R,S)-4-(2-hydroxypropan-2-yl)-N′-((3-methyl-1,2,3,5,6,7-hexahy-drodicyclopenta[b,e]pyridin-8-yl)carbamoyl)thiophene-2-sulfonimidamide], the IC50 under setting [4] is 0.008 to 0.04 µM.

On to `CC(O)c1csc([S@](N)(=O)=NC(=O)Nc2c3c(nc4c2CC[C@H]4C)CCC3)c1` (stereo partly drawn) [Example 582, (R)-4-(1-hydroxyethyl)-N′-(((R)-3-methyl-1,2,3,5,6,7-hexahydrodicyclopenta[b,e]pyridin-8-yl)carbamoyl)thiophene-2-sulfonimidamide], for which the IC50 under setting [6] fell in the range of 0.04 to 0.2 µM.

For `CN(C)Cc1ccc(S(=O)(=NC(=O)Nc2c3c(nc4c2CCC4)CCC3)NC(=O)OC(C)(C)C)cc1` (stereo not shown) [Compound 113, tert-butyl (4-((dimethylamino)methyl)-N-((1,2,3,5,6,7-hexahydrodicyclopenta[b,e]pyridin-8-yl)carbamoyl)phenylsulfonimidoyl)carbamate], the IC50 (Homo sapiens, THP-1, Table B1, numeric bounds, read-out: Average IC50 of compounds in hTHP-1 assay: hTHP-1 IC50) was greater than 30 µM.

Regarding `CC(C)c1cc(NC(=O)N=S(N)(=O)c2cc(C(C)(C)O)cs2)c2c(n1)CCC2` (single isomer, unassigned) [Compound 182b, (R) or (S)-4-(2-Hydroxypropan-2-yl)-N′-((2-isopropyl-6,7-dihydro-5H-cyclopenta[b]pyridin-4-yl)carbamoyl) thiophene-2-sulfonimidamide], under setting [1], the IC50 lay within 5 to 30 µM.

Consider `CC(C)c1csc(S(N)(=O)=NC(=O)Nc2c3c(nc4c2CCC4)CCC3)c1` (single isomer, unassigned) [Compound 173a, (R) or (S)-N′-((1,2,3,5,6,7-hexahydrodicyclo-penta[b,e]pyridin-8-yl)carbamoyl)-4-isopropylthiophene-2-sulfonimidamide], for which, under setting [5], the IC50 fell in the range of 0.2 to 1 µM.

Take `CC(C)(O)c1cnc(S(N)(=O)=NC(=O)Nc2c3c(nc4c2CCC4)CCC3)s1` (stereo not shown) [Compound 167]: the IC50 under setting [5] was 1 to 5 µM.

For the compound `Cc1c(C2CC2)nc(C2CC2)c(C)c1NC(=O)N=S(N)(=O)c1cc(C(C)(C)O)cs1` (stereo not shown) [Compound 612, N′-((2,6-dicyclopropyl-3,5-dimethylpyridin-4-yl)carbamoyl)-4-(2-hydroxypropan-2-yl)thiophene-2-sulfonimidamide], the half-inhibitory concentration (IC50) under setting [1] is 1 to 5 µM.

For the compound `Cc1c(C(C)C)nc2c(c1NC(=O)N=S(N)(=O)c1cc(C(C)(C)O)cs1)CCC2` (single isomer, unassigned) [Compound 681b, (R) or (S)-4-(2-Hydroxypropan-2-yl)-N′-((2-isopropyl-3-methyl-6,7-dihydro-5H-cyclopenta[b]pyridin-4-yl)carbamoyl) thiophene-2-sulfonimidamide], the IC50 under setting [3] is 0.2 to 1 µM.

`Cc1nc2c(c(NC(=O)N=S(N)(=O)c3cc(C(C)(C)O)cs3)c1C(F)(F)F)CCC2` (stereo not shown) [Example 566, 4-(2-Hydroxypropan-2-yl)-N′-((2-methyl-3-(trifluoromethyl)-6,7-dihydro-5H-cyclopenta[b]pyridin-4-yl)carbamoyl)thiophene-2-sulfonimidamide]: the IC50 under setting [6] lay in the range of 0.2 to 1 µM.

Take `CC(C)(O)c1ccc(S(N)(=O)=NC(=O)Nc2c3c(nc4c2CCC4)CCC3)s1` (single isomer, unassigned) [Compound 149a, (R) or (S)-N′-((1,2,3,5,6,7-hexahydrodicyclo-penta[b,e]pyridin-8-yl)carbamoyl)-5-(2-hydroxypropan-2-yl)thiophene-2-sulfonimidamide]: under setting [5], the half-inhibitory concentration (IC50) fell in the range of 0.2 to 1 µM.

For the compound `CN(C)Cc1ccc(S(N)(=O)=NC(=O)Nc2c3c(nc4c2CCC4(C)C)CCC3)cc1` (stereo not shown) [Compound 125, N′-((3,3-dimethyl-1,2,3,5,6,7-hexahydrodicyclopenta[b,e]pyridin-8-yl)carbamoyl)-4-((dimethylamino)methyl)benzenesulfonimidamide], the concentration for half-maximal inhibition (IC50) under setting [5] fell in the range of 1 to 5 µM.

In the case of `Cc1c(C(F)(F)F)nc2c(c1NC(=O)N=S(N)(=O)c1cnc(C(C)(O)CO)s1)CCC2` (single isomer, unassigned) [Compound 605c], under setting [3], the IC50 was in the range of 0.2 to 1 µM.

As to `CC(C)n1ccc(S(N)(=O)=NC(=O)Nc2c3c(nc4c2CCC42CC2)CCC3)n1` (single isomer, unassigned) [Compound 172b, (R) or (S)-1-Isopropyl-N′-((1′,5′,6′,7′-tetrahydro-2′H-spiro[cyclopropane-1,3′-dicyclopenta[b,e]pyridin]-8′-yl)carbamoyl)-1H-pyrazole-3-sulfonimidamide], the half-maximal inhibitory concentration (IC50) under setting [4] was in the range of 0.2 to 1 µM.
